{"source": "patent US11951094B2", "about": "“TLR2 modulator compounds, pharmaceutical compositions and uses thereof” (Axial Therapeutics, Inc., priority 2020, dated 2024)"}
{"molecular_target": "TLR2 (Homo sapiens, UniProt O60603)", "sequence (O60603 21-784)": "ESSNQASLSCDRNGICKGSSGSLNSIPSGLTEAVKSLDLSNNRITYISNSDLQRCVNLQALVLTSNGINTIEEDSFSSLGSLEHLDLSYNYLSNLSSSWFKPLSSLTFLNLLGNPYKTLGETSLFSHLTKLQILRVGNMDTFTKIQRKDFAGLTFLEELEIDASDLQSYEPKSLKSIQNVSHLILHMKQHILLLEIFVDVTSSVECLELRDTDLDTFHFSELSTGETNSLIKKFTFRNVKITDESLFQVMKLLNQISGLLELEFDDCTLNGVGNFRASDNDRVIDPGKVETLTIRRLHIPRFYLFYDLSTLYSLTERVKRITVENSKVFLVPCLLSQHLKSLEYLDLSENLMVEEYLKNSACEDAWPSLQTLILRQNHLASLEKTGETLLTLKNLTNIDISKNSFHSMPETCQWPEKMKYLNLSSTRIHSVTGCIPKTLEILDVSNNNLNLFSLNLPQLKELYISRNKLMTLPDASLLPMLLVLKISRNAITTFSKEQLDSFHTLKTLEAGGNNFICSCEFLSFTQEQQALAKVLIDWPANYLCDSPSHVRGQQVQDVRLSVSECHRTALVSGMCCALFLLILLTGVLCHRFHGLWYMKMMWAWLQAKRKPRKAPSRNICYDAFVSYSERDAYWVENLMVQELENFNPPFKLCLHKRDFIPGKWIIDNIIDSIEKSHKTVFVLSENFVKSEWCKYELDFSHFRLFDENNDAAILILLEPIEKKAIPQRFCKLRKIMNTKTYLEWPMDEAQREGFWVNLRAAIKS", "assay": "TLR2 agonist screening assay, HEK-Blue TLR2 reporter cell line (NF-kB-driven SEAP, absorbance at 600 nm)", "assay_type": "cell-based", "parameters": "host or cells: HEK-293 (HEK-Blue TLR2 reporter cell line)", "conditions": "HEK-Blue TLR2 reporter cells, agonist mode; average of all runs (Table 4)", "text": "TLRs are a class of cell-surface receptors expressed on many different cell types that recognize conserved structural motifs present on pathogen-derived molecules. TLR2 recognizes bacteria-derived lipopeptides. […] Provided herein is an assay to identify and characterize the binding affinities of novel TLR2 agonists.\nThe in vitro TLR2 assay consists of a cell line that responds to TLR2 engagement by producing a factor that elicits a color change in the culture media and can be readily measured by various colorimetric detection methods. This assay enables the identification of existing and novel compounds that engage TLR2 and, by virtue of compound dilution, to approximate the binding affinity of these compounds for eliciting a TLR2 signal.\nThe TLR2 screening assay was developed from the HEK-Blue TLR2 reporter cell line that is commercially available from Invivogen (San Diego, CA). The reporter cell line consists of HEK-293 embryonic kidney cells that have been engineered to express TLR2 and with an NF-kB promoter driving expression of Secreted Alkaline Phosphatase (SEAP). Upon engagement of TLR2, downstream signaling results in activation of NF-kB pathway activation and secretion of SEAR In the presence of the detection reagent in the tissue culture media, SEAP mediates a color change from clear to indigo that is readily assessed by measuring absorbance at 600 nm.\nHEK-Blue TLR2 reporter cells are cultured according to manufacturer's specifications until a confluence of 70-90%, at which point the cells are trypsinized, counted, and plated into 96-well plates at approximately 40,000 cells per well. Cells are cultured overnight and the TLR2 assay is performed 16-24 hours post-plating into 96 well plates.\nCompounds are diluted from stocks dissolved in DMSO and a 1% DMSO final concentration is maintained in all testing wells.\nThe assay consists of removing the cell culture media after cells have been cultured overnight and replacing the media with HEK-Blue Detection media with TLR2 agonists at indicated dilution schemes. The Detection media contains a chemical substrate that turns from clear to indigo when acted upon by SEAP. The HEK-Blue cells are then cultured overnight in Detection media with diluted compounds. After overnight culture with agonists, each well of the plate is assayed in a plate reader at 600 nanometer absorbance.\n• (1) HEK-Blue TLR2 cells are diluted in complete DME culture medium and plated into 96-well plates at 40,000 cells per well and cultured overnight. • (2) After 16-24 hours in culture, the media is removed and replaced with 200 microliters per well of HEK-Blue Detection media. • (3) TLR2 agonists are diluted 100-fold from DMSO stocks into each well, yielding a final DMSO concentration of 1% in all wells. • (3) Treated cells are cultured overnight and the following day are assayed in plate reader for Absorbance at 600 nanometer.\nFollowing assay measurements utilizing either HEK-Blue detection or cytokine release, all data is analyzed with the GraphPad Prism8 statistical package to determine EC50, binding and activity metrics for the TLR2 modulators.\nData is generated using protocol described in Example 44.", "units": {"EC50": "nM"}}
{"smiles": "O=C(N[C@H]1C[C@@H]1c1ccccc1)[C@@H]1CN(C(=O)c2ccc(C(=O)N3C[C@@H](C(=O)N[C@@H]4C[C@H]4c4cccnc4)[C@H](C(=O)N[C@@H]4C[C@H]4c4cccnc4)C3)cc2)C[C@H]1C(=O)N[C@H]1C[C@@H]1c1ccccc1", "note": "(single isomer, unassigned) [Compound 095, (3S,4S)-1-(4-((3S,4S)-3,4-bis(((1S*,2R*)-2-(pyridin-3-yl)cyclopropyl)carbamoyl)pyrrolidine-1-carbonyl)benzoyl)-N3,N4-bis((1S,2R)-2-phenylcyclopropyl) pyrrolidine-3,4-dicarboxamide]", "EC50": "351 to 1000"}
{"smiles": "O=C(N[C@H]1C[C@@H]1c1ccccc1)[C@@H]1CN(C(=O)c2ccc(C(=O)N3C[C@@H](C(=O)N[C@H]4C[C@@H]4c4ccccc4)[C@H](C(=O)N[C@@H]4C[C@H]4c4cccnc4)C3)cc2)C[C@H]1C(=O)N[C@H]1C[C@@H]1c1ccccc1", "note": "(single isomer, unassigned) [Compound 097, (3S,4S)—N3-((1S)-2-phenylcyclopropyl)-N4-(2-phenylcyclopropyl)-1-(4-((3S,4S)-3-(((1S,2R)-2-phenylcyclopropyl)carbamoyl)-4-(((1S*,2R*)-2-(pyridin-3-yl)cyclopropyl)carbamoyl)pyrrolidine-1-carbonyl)benzoyl)pyrrolidine-3,4-dicarboxamide]", "EC50": "51 to 350"}
{"smiles": "CCCCCCCCCCCCCCNC(=O)[C@@H]1CN(C(=O)c2ccc(C(=O)N3C[C@@H](C(=O)N[C@H]4C[C@@H]4c4ccccc4)[C@H](C(=O)N[C@H]4C[C@@H]4c4ccccc4)C3)cc2)C[C@@H]1O", "note": "(single isomer, unassigned) [Compound 103, (3S,4S)-1-(4-((3R*,4R*)-3-hydroxy-4-(tetradecylcarbamoyl)pyrrolidine-1-carbonyl)benzoyl)-N3,N4-bis((1S,2R)-2-phenylcyclopropyl) pyrrolidine-3,4-dicarboxamide]", "EC50": "351 to 1000"}
{"smiles": "CCCCCCCCCCCCCCNC(=O)[C@@H]1CN(C(=O)c2ccc(C(=O)N3C[C@@H](C(=O)N[C@H]4C[C@@H]4c4ccccc4)[C@H](C(=O)N[C@H]4C[C@@H]4c4ccccc4)C3)cc2)C[C@H]1O", "note": "(single isomer, unassigned) [Compound 105, (3S,4S)-1-(4-((3R*,4S*)-3-hydroxy-4-(tetradecylcarbamoyl)pyrrolidine-1-carbonyl)benzoyl)-N3,N4-bis((1S,2R)-2-phenylcyclopropyl)pyrrolidine-3,4-dicarboxamide]", "EC50": "51 to 350"}
{"smiles": "CCCCCCCCCCCCCCNC(=O)[C@H]1CN(C(=O)c2ccc(C(=O)N3C[C@@H](C(=O)N[C@H]4C[C@@H]4c4ccccc4)[C@H](C(=O)N[C@H]4C[C@@H]4c4ccccc4)C3)cc2)C[C@@H]1O", "note": "(single isomer, unassigned) [Compound 106, (3S,4S)-1-(4-((3S*,4R*)-3-hydroxy-4-(tetradecylcarbamoyl)pyrrolidine-1-carbonyl)benzoyl)-N3,N4-bis((1S,2R)-2-phenylcyclopropyl)pyrrolidine-3,4-dicarboxamide]", "EC50": "51 to 350"}
{"smiles": "CCCCCCCCCCCCCCNC(=O)[C@@H]1CN(C(=O)c2ccc(C(=O)N3C[C@@H](C(=O)N[C@H]4C[C@@H]4c4ccccc4)[C@H](C(=O)N[C@H]4C[C@@H]4c4ccccc4)C3)cc2)C[C@@H]1OC", "note": "(single isomer, unassigned) [Compound 107, (3S,4S)-1-(4-((3R*,4R*)-3-methoxy-4-(tetradecylcarbamoyl)pyrrolidine-1-carbonyl)benzoyl)-N3,N4-bis((1S,2R)-2-phenylcyclopropyl)pyrrolidine-3,4-dicarboxamide]", "EC50": "351 to 1000"}
{"smiles": "CCCCCCCC[C@@H]1CN(C(=O)c2ccc(C(=O)N3C[C@@H](C(=O)N[C@H]4C[C@@H]4c4ccccc4)[C@H](C(=O)N[C@H]4C[C@@H]4c4ccccc4)C3)cc2)C[C@H]1C(=O)NCCCCCC", "note": "(single isomer, unassigned) [Compound 111]", "EC50": "0.1 to 50"}
{"smiles": "CCCCCCCC[C@H]1CN(C(=O)c2ccc(C(=O)N3C[C@@H](C(=O)N[C@H]4C[C@@H]4c4ccccc4)[C@H](C(=O)N[C@H]4C[C@@H]4c4ccccc4)C3)cc2)C[C@@H]1C(=O)NCCCCCC", "note": "(single isomer, unassigned) [Compound 112]", "EC50": "51 to 350"}
{"smiles": "CCCCCCCO[C@@H]1CN(C(=O)c2ccc(C(=O)N3C[C@@H](C(=O)N[C@H]4C[C@@H]4c4ccccc4)[C@H](C(=O)N[C@H]4C[C@@H]4c4ccccc4)C3)cc2)C[C@H]1C(=O)NCCCCCC", "note": "(single isomer, unassigned) [Compound 114, (3S,4S)-1-(4-((3S*,4R*)-3-(heptyloxy)-4-(hexylcarbamoyl)pyrrolidine-1-carbonyl)benzoyl)-N3,N4-bis((1S,2R)-2-phenylcyclopropyl)pyrrolidine-3,4-dicarboxamide]", "EC50": "51 to 350"}
{"smiles": "CCCCCCCO[C@H]1CN(C(=O)c2ccc(C(=O)N3C[C@@H](C(=O)N[C@H]4C[C@@H]4c4ccccc4)[C@H](C(=O)N[C@H]4C[C@@H]4c4ccccc4)C3)cc2)C[C@H]1C(=O)NCCCCCC", "note": "(single isomer, unassigned) [Compound 115, (3S,4S)-1-(4-((3R*,4R*)-3-(heptyloxy)-4-(hexylcarbamoyl)pyrrolidine-1-carbonyl)benzoyl)-N3,N4-bis((1S,2R)-2-phenylcyclopropyl)pyrrolidine-3,4-dicarboxamide]", "EC50": "> 1000"}
{"smiles": "CCCCCCCC(=O)N1CCCN(C(=O)c2ccc(C(=O)N3C[C@@H](C(=O)N[C@H]4C[C@@H]4c4ccccc4)[C@H](C(=O)N[C@H]4C[C@@H]4c4ccccc4)C3)cc2)C[C@H]1C(=O)NCCCCCC", "note": "(single isomer, unassigned) [Compound 145]", "EC50": "> 1000"}
{"smiles": "CCCCCCCC(=O)N1CCCN(C(=O)c2ccc(C(=O)N3C[C@@H](C(=O)N[C@H]4C[C@@H]4c4ccccc4)[C@H](C(=O)N[C@H]4C[C@@H]4c4ccccc4)C3)cc2)C[C@@H]1C(=O)NCCCCCC", "note": "(single isomer, unassigned) [Compound 146]", "EC50": "351 to 1000"}
{"smiles": "CCCCCCNC(=O)[C@H](CN[C@@H](c1ccc(C(=O)N2C[C@@H](C(=O)N[C@H]3C[C@@H]3c3ccccc3)[C@H](C(=O)N[C@H]3C[C@@H]3c3ccccc3)C2)cc1)C(F)(F)F)NC(=O)CCCCCC", "note": "(single isomer, unassigned) [Compound 148]", "EC50": "351 to 1000"}
{"smiles": "CCCCCCNC(=O)[C@H](CN[C@H](c1ccc(C(=O)N2C[C@@H](C(=O)N[C@H]3C[C@@H]3c3ccccc3)[C@H](C(=O)N[C@H]3C[C@@H]3c3ccccc3)C2)cc1)C(F)(F)F)NC(=O)CCCCCC", "note": "(single isomer, unassigned) [Compound 149]", "EC50": "51 to 350"}
{"smiles": "CCCCCCCC(=O)N1CCCN(C(=O)c2cccc(C(=O)N3C[C@@H](C(=O)N[C@H]4C[C@@H]4c4ccccc4)[C@H](C(=O)N[C@H]4C[C@@H]4c4ccccc4)C3)c2)C[C@H]1C(=O)NCCCCCC", "note": "(single isomer, unassigned) [Compound 190]", "EC50": "351 to 1000"}
{"smiles": "CCCCCCCC(=O)N1CCCN(C(=O)c2cccc(C(=O)N3C[C@@H](C(=O)N[C@H]4C[C@@H]4c4ccccc4)[C@H](C(=O)N[C@H]4C[C@@H]4c4ccccc4)C3)c2)C[C@@H]1C(=O)NCCCCCC", "note": "(single isomer, unassigned) [Compound 191]", "EC50": "351 to 1000"}
{"smiles": "CCCCCCCC(=O)N1CCCN(S(=O)(=O)c2cccc(C(=O)N3C[C@@H](C(=O)N[C@H]4C[C@@H]4c4ccccc4)[C@H](C(=O)N[C@H]4C[C@@H]4c4ccccc4)C3)c2)C[C@H]1C(=O)NCCCCCC", "note": "(single isomer, unassigned) [Compound 200]", "EC50": "> 1000"}
{"smiles": "CCCCCCCC(=O)N1CCCN(S(=O)(=O)c2cccc(C(=O)N3C[C@@H](C(=O)N[C@H]4C[C@@H]4c4ccccc4)[C@H](C(=O)N[C@H]4C[C@@H]4c4ccccc4)C3)c2)C[C@@H]1C(=O)NCCCCCC", "note": "(single isomer, unassigned) [Compound 201]", "EC50": "351 to 1000"}
{"smiles": "CCCCCCCC(=O)N1CCCN(S(=O)(=O)c2ccc(C(=O)N3C[C@@H](C(=O)N[C@H]4C[C@@H]4c4ccccc4)[C@H](C(=O)N[C@H]4C[C@@H]4c4ccccc4)C3)cc2)CC1C(=O)NCCCCCC", "note": "(single isomer, unassigned) [Compound 202, (3S,4S)-1-(4-(((S*)-3-(hexylcarbamoyl)-4-octanoyl-1,4-diazepan-1-yl)sulfonyl)benzoyl)-N3,N4-bis((1S,2R)-2-phenylcyclopropyl)pyrrolidine-3,4-dicarboxamide]", "EC50": "51 to 350"}
